Experimental data as given in US20050070554A1, “Substituted heterocyclic compounds and methods of use” (Amgen Inc., priority 2003, published 2005).
Where two headings read alike, the source gives them in different places.

Biological target: T1, LCK (Homo sapiens, UniProt P06239)
T1 construct: LCK KD GST (225-509); GST
Experiment: LCK-Homogeneous Time Resolved Fluorescent (HTRF) Kinase Assay
Assay type: biochemical
Protocol: LCK-Homogeneous Time Resolved Fluorescent (HTRF) Kinase Assay:
The LCK HTRF assay begins with LCK in the presence of ATP phosphorylating the biotinylated peptide Gastrin. The reaction incubates for 90 min. To quench the assay detection reagents are added which both stop the reaction by diluting out the enzyme and chelating the metals due to the presence of EDTA. Once the detection reagents are added the assay incubates for 30 min to allow for equilibration of the detection reagents.
Buffer conditions are as follows: 50 mM HEPES pH 7.5, 50 mM NaCl, 20 mM MgCl, 5 mM MnCl, 2 mM DTT, 0.05% BSA.
The assay is quenched and stopped with 160 μL of detection reagent. Detection reagents are as follows: Buffer made of 50 mM Tris, pH 7.5, 100 mM NaCl, 3 mM EDTA, 0.05% BSA, 0.1% Tween20.
The assay plate is read in either a Discovery or a RubyStar.

[1] = read-out: activity in the LCK-HTRF Kinase Assay

T1 sequence (P06239 225-509): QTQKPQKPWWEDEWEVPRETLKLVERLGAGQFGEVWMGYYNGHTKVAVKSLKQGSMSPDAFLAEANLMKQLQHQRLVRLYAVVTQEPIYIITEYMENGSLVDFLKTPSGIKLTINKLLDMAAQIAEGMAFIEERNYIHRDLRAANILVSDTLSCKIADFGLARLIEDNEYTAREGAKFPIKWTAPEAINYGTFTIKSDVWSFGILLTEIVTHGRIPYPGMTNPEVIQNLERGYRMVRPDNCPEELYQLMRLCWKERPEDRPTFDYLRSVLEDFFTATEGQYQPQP

IC50	IC50 [1]	SMILES
< 1 µM		Cc1cccc(C)c1-n1c(=O)c2cnc(Nc3ccc(OCCN4CCN(C)CC4)c(F)c3)nc2n2c3ccccc3nc12 [No. 38, 6-(2,6-dimethylphenyl)-2-((3-fluoro-4-((2-(4-methyl-1-piperazinyl)ethyl)oxy)phenyl)amino)-pyrimido[5′,4′:5,6]pyrimido[1,2-a]benzimidazol-5(6H)-one]
< 1 µM		COc1cc(Nc2ncc3c(=O)n(-c4c(C)cccc4C)c4nc5ccccc5n4c3n2)ccc1OCCCN1CCN(C)CC1 [No. 20, 6-(2,6-dimethylphenyl)-2-((3-(methyloxy)-4-((3-(4-methyl-1-piperazinyl)propyl)oxy)phenyl)amino)-pyrimido[5′,4′:5,6]pyrimido[1,2-a]benzimidazol-5(6H)-one]
	< 1 µM	Cc1cccc(C)c1-n1c(=O)c2cnc(Nc3ccc(N4CCN(C)CC4)c(F)c3)nc2n2c3ccccc3nc12 [No. 26, 6-(2,6-dimethylphenyl)-2-((3-fluoro-4-(4-methyl-1-piperazinyl)phenyl)amino)pyrimido[5′,4′:5,6]-pyrimido[1,2-a]benzimidazol-5(6H)-one]
	< 1 µM	Cc1cccc(C)c1N1C(=O)c2cnc(Nc3ccc(N4CCN(C)CC4)cc3)nc2N2CCN=C21 [No. 58, 6-(2,6-dimethylphenyl)-2-((4-(4-methyl-1-piperazinyl)phenyl)amino)-8,9-dihydroimidazo[1,2-a]pyrimido[5,4-e]pyrimidin-5(6H)-one]
< 1 µM		Cc1ccc(-n2c(=O)c3cnc(Nc4ccc(N5CCN(C)CC5)cc4)nc3n3c4ccccc4nc23)cc1 [No. 78, 6-(4-methylphenyl)-2-((4-(4-methyl-1-piperazinyl)-phenyl)amino)pyrimido[5′,4′:5,6]pyrimido[1,2-a]-benzimidazol-5(6H)-one]
	< 1 µM	Cc1cccc(C)c1-n1c(=O)c2cnc(Nc3ccc(N4CCN(C)CC4)cc3)nc2n2ccnc12 [No. 87, 6-(2,6-dimethylphenyl)-2-((4-(4-methyl-1-piperazinyl)phenyl)amino)imidazo[1,2-a]-pyrimido[5,4-e]pyrimidin-5(6H)-one]
	< 1 µM	Cc1cccc(C)c1-n1c(=O)c2cnc(Nc3ccc(OC[C@@H]4CCCN4C)cc3)nc2n2c3ccccc3nc12 [No. 28, 6-(2,6-dimethylphenyl)-2-((4-((((2S)-1-methyl-2-pyrrolidinyl)methyl)oxy)phenyl)amino)-pyrimido[5′,4′:5,6]pyrimido[1,2-a]benzimidazol-5(6H)-one]
	< 1 µM	CCN(CC)CCN(C)C(=O)c1cccc(Nc2ncc3c(=O)n(-c4c(C)cccc4C)c4nc5ccccc5n4c3n2)c1 [No. 66, N-(2-(diethylamino)ethyl)-3-((6-(2,6-dimethylphenyl)-5-oxo-5,6-dihydropyrimido[5′,4′:5,6]pyrimido[1,2-a]-benzimidazol-2-yl)amino)-N-methylbenzamide]
< 1 µM		CN1CCN(c2ccc(Nc3ncc4c(=O)n(-c5c(Cl)cc(Cl)cc5Cl)c5nc6ccccc6n5c4n3)cc2)CC1 [No. 77, 2-((4-(4-methyl-1-piperazinyl)phenyl)amino)-6-(2,4,6-trichlorophenyl)pyrimido[5′,4′:5,6]-pyrimido[1,2-a]benzimidazol-5(6H)-one]
	< 1 µM	Cc1cccc(C)c1-n1c(=O)c2cnc(Nc3ccc(OCCN4CCN(C(C)C)CC4)c(Cl)c3)nc2n2c3ccccc3nc12 [No. 70, 2-((3-chloro-4-((2-(4-(1-methylethyl)-1-piperazinyl)-ethyl)oxy)phenyl)amino)-6-(2,6-dimethylphenyl)-pyrimido[5′,4′:5,6]pyrimido[1,2-a]benzimidazol-5(6H)-one]
	< 1 µM	Cc1cccc(C)c1-n1c(=O)c2cnc(Nc3ccc(OC[C@@H]4CCCN4)cc3)nc2n2c3ccccc3nc12 [No. 14, 6-(2,6-dimethylphenyl)-2-((4-(((2S)-2-pyrrolidinylmethyl)oxy)phenyl)amino)-pyrimido[5′,4′:5,6]pyrimido[1,2-a]benzimidazol-5(6H)-one]
	< 1 µM	COc1cc(Nc2ncc3c(=O)n(-c4c(C)cccc4C)c4nc5ccccc5n4c3n2)ccc1N1CCN(C(C)C)CC1 [No. 46, 6-(2,6-dimethylphenyl)-2-((4-(4-(1-methylethyl)-1-piperazinyl)-3-(methyloxy)phenyl)amino)-pyrimido[5′,4′:5,6]pyrimido[1,2-a]benzimidazol-5(6H)-one]
	< 1 µM	COc1cc(Nc2ncc3c(=O)n(-c4c(C)cccc4C)c4nc5ccccc5n4c3n2)ccc1N1CCNCC1 [No. 37, 6-(2,6-dimethylphenyl)-2-((3-(methyloxy)-4-(1-piperazinyl)phenyl)amino)pyrimido[5′,4′:5,6]-pyrimido[1,2-a]benzimidazol-5(6H)-one]
	< 1 µM	Cc1cccc(C)c1-n1c(=O)c2cnc(Nc3ccc(OCCCN4CCN(C)CC4)c(F)c3)nc2n2c3ccccc3nc12 [No. 7, 6-(2,6-dimethylphenyl)-2-((3-fluoro-4-((3-(4-methyl-1-piperazinyl)propyl)oxy)phenyl)amino)-pyrimido[5′,4′:5,6]pyrimido[1,2-a]benzimidazol-5(6H)-one]
	< 1 µM	COc1cc(Nc2ncc3c(=O)n(-c4c(C)cccc4C)c4nc5ccccc5n4c3n2)ccc1OCCN1CCN(C(C)C)CC1 [No. 62, 6-(2,6-dimethylphenyl)-2-((4-((2-(4-(1-methylethyl)-1-piperazinyl)ethyl)oxy)-3-(methyloxy)phenyl)-amino)pyrimido[5′,4′:5,6]pyrimido[1,2-a]-benzimidazol-5(6H)-one]
	< 1 µM	Cc1cccc(C)c1-n1c(=O)c2cnc(Nc3cccc(C(=O)NCCN(C)C)c3)nc2n2c3ccccc3nc12 [No. 65, N-(2-(dimethylamino)ethyl)-3-((6-(2,6-dimethylphenyl)-5-oxo-5,6-dihydropyrimido[5′,4′:5,6]pyrimido[1,2-a]-benzimidazol-2-yl)amino)benzamide]
	< 1 µM	C[C@@H](c1ccccc1)n1c(=O)c2cnc(Nc3ccc(N4CCN(C)CC4)cc3)nc2n2c3ccccc3nc12 [No. 60, 2-((4-(4-methyl-1-piperazinyl)phenyl)amino)-6-((1S)-1-phenylethyl)pyrimido[5′,4′:5,6]pyrimido[1,2-a]-benzimidazol-5(6H)-one]
	< 1 µM	CCN(CC)CCCOc1ccc(Nc2ncc3c(=O)n(-c4c(C)cccc4C)c4nc5ccccc5n4c3n2)cc1F [No. 6, 2-((4-((3-(diethylamino)propyl)oxy)-3-fluorophenyl)-amino)-6-(2,6-dimethylphenyl)pyrimido[5′,4′:5,6]-pyrimido[1,2-a]benzimidazol-5(6H)-one]
	< 1 µM	CN1CCN(c2ccc(Nc3ncc4c(=O)n(-c5c(F)cccc5F)c5nc6ccccc6n5c4n3)cc2)CC1 [No. 88, 6-(2,6-difluorophenyl)-2-((4-(4-methyl-1-piperazinyl)-phenyl)amino)pyrimido[5′,4′:5,6]pyrimido[1,2-a]-benzimidazol-5(6H)-one]
	< 1 µM	Cc1cccc(C)c1-n1c(=O)c2cnc(Nc3ccc(N4CCN(CC(N)=O)CC4)cc3)nc2n2c3ccccc3nc12 [No. 50, 2-(4-(4-((6-(2,6-dimethylphenyl)-5-oxo-5,6-dihydropyrimido[5′,4′:5,6]pyrimido[1,2-a]-benzimidazol-2-yl)amino)phenyl)-1-piperazinyl)-acetamide]
	< 1 µM	Cc1cccc(C)c1-n1c(=O)c2cnc(Nc3ccc(OCCNC(C)C)cc3)nc2n2c3ccccc3nc12 [No. 56, 6-(2,6-dimethylphenyl)-2-((4-((2-((1-methylethyl)-amino)ethyl)oxy)phenyl)amino)pyrimido[5′,4′:5,6]-pyrimido[1,2-a]benzimidazol-5(6H)-one]
	< 1 µM	Cc1cccc(C)c1-n1c(=O)c2cnc(Nc3ccc(OCCN4CCOCC4)cc3)nc2n2c3ccccc3nc12 [No. 29, 6-(2,6-dimethylphenyl)-2-((4-((2-(4-morpholinyl)-ethyl)oxy)phenyl)amino)pyrimido[5′,4′:5,6]-pyrimido[1,2-a]benzimidazol-5(6H)-one]
	< 1 µM	COc1cc(Nc2ncc3c(=O)n(-c4c(C)cccc4C)c4nc5ccccc5n4c3n2)cc(OCCCN2CCN(C)CC2)c1OC [No. 21, 2-((3,4-bis(methyloxy)-5-((3-(4-methyl-1-piperazinyl)propyl)oxy)phenyl)amino)-6-(2,6-dimethylphenyl)pyrimido[5′,4′:5,6]pyrimido[1,2-a]-benzimidazol-5(6H)-one]
	< 1 µM	Cc1cccc(C)c1-n1c(=O)c2cnc(Nc3ccc(OCCN4CCN(C(C)C)CC4)c(F)c3)nc2n2c3ccccc3nc12 [No. 61, 6-(2,6-dimethylphenyl)-2-((3-fluoro-4-((2-(4-(1-methylethyl)-1-piperazinyl)ethyl)oxy)phenyl)amino)-pyrimido[5′,4′:5,6]pyrimido[1,2-a]benzimidazol-5(6H)-one]
	< 1 µM	Cc1cc(N2CCN(C)CC2)ccc1Nc1ncc2c(=O)n(-c3c(C)cccc3C)c3nc4ccccc4n3c2n1 [No. 13, 6-(2,6-dimethylphenyl)-2-((2-methyl-4-(4-methyl-1-piperazinyl)phenyl)amino)pyrimido[5′,4′:5,6]-pyrimido[1,2-a]benzimidazol-5(6H)-one]
	< 1 µM	Cc1cccc(C)c1-n1c(=O)c2cnc(Nc3ccc(OCCCN4CCN(C)CC4)c(Cl)c3)nc2n2c3ccccc3nc12 [No. 73, 2-((3-chloro-4-((3-(4-methyl-1-piperazinyl)propyl)-oxy)phenyl)amino)-6-(2,6-dimethylphenyl)-pyrimido[5′,4′:5,6]pyrimido[1,2-a]benzimidazol-5(6H)-one]
	< 1 µM	Cc1cc(OCCCN2CCN(C)CC2)ccc1Nc1ncc2c(=O)n(-c3c(C)cccc3C)c3nc4ccccc4n3c2n1 [No. 16, 6-(2,6-dimethylphenyl)-2-((2-methyl-4-((3-(4-methyl-1-piperazinyl)propyl)oxy)phenyl)amino)-pyrimido[5′,4′:5,6]pyrimido[1,2-a]benzimidazol-5(6H)-one]
